Here are results for 21 molecules from patent publication USRE40594E1, “Inhibitors of the bitter taste response” (Mount Sinai School of Medicine of New York University, priority 1998, dated 2008).

The test deals with bovine taste receptor cell membranes (taste receptors) with transducin. Description: G protein activation assay (trypsin sensitivity): activation of transducin by bitter tastant plus taste membranes. It counts as biochemical, Bovine (Bos primigenius). The following applies: for inhibition of taste membrane-dependent activation of transducin by DEN (AMP analogues): DEN 5.0 mM, test compound 5.0 mM, FIG. 2; for inhibition of in vitro activation of transducin (G-protein) by taste membranes plus bitter compounds, summary statement: DEN, QUI and other bitter compounds, concentrations not given. The text has this: Taste receptor is contacted with gustducin or transducin and tastant, in the presence or absence of test inhibitor, under conditions suitable for activation of the G-protein present. […] In specific non-limiting embodiments, a subunits of transducin or gustducin may be combined with βγ subunits prior to this step, as set forth above. To the reaction mixture comprising taste receptors and gustducin or transducin, test inhibitor and/or bitter tastant may be added, and the resulting solution incubated to permit interaction of the elements.
In preferred embodiments, activation is assessed by a trypsin digestion assay. […] In a specific, non-limiting example, to perform a trypsin digestion assay according to the invention, TPCK-treated trypsin (1:25 trypsin to total protein in the reaction mixture) may be added, and the digestion may be performed at room temperature for about 15 minutes and stopped by adding soybean trypsin inhibitor (6:1 mol/mol inhibitor to trypsin). […] The separated polypeptides may then be transferred by electro-blotter to a poly (vinylidene difluoride) membrane blocked by the addition of 5% BLOTTO [50 mM Tris-HCI, pH 7.4/100 mM NaCl/5% nonfat dry milk], (30 min). G-protein peptides may then be visualized by binding of antibody directed toward transducin or gustducin, followed, for example, by binding of a detectably labeled secondary antibody. If a horseradish peroxidase-labeled secondary antibody is used, binding may be visualized by developing with bicinchoninic acid staining reagents and exposure to x-ray film.
G Protein Activation Assays. Bovine (Bos primigenius) tongues were collected fresh from a local slaughterhouse and transported on ice to the laboratory. Circumvallate papillae were hand dissected, frozen in liquid nitrogen, and stored at −80° C. until use. […] The pelleted membranes were rinsed twice, resuspended in homogenization buffer lacking protease inhibitors, and further homogenized by 20 passages through a 25-gauge needle. Aliquots were either flash frozen or stored on ice until use. […] The separated polypeptides were transferred by electro-blotter to a poly (vinylidene difluoride) membrane, which was blocked by the addition of 5% BLOTTO [50 mM Tris-HCI, pH 7.4/100 mM NaCl/5% nonfat dry milk], (30 min), then transducin peptides were visualized by binding of transducin antiserum and horseradish peroxidase-labeled goat anti-rabbit secondary antibody, followed by developing with bicinchoninic acid staining reagents from Bio-Rad and exposure to x-ray film.
Chemicals. All bitter tastant and buffer chemicals were of the highest purity available and were purchased either from Sigma or Boehringer Mannheim, unless otherwise noted. […] The rabbit polyclonal antitransducin antibody was a kind gift of Mel Simon and John Watson (California Institute of Technology, Pasadena, Calif.).

Where a name gives a salt, the structure may show the parent alone. Read-outs that look alike come from different tables or passages of the source.

`Cn1c(=O)c2[nH]cnc2n(C)c1=O` [THE, theophylline, reference compound]: the “inhibition of taste membrane-dependent activation of transducin by DEN (AMP analogues)” value (“inhibition … (AMP analogues)” for short) is reported as “not inhibited”. Further, where the note is “listed as theophylline”, the “inhibition … (AMP analogues)” value was “did not block”.
Regarding `C[C@@H]1O[C@@H](O[C@H]2[C@H](Oc3cc(O)c4c(c3)O[C@H](c3ccc(O)cc3)CC4=O)O[C@H](CO)[C@@H](O)[C@@H]2O)[C@H](O)[C@H](O)[C@H]1O` [naringin, reference compound], for the setting “tastant itself, no inhibitor”, the “activation of transducin by the tastant in the presence of taste membranes” value (“activation of transducin by the tastant” for short) is listed as “activated transducin”.
`Nc1ncnc2c1ncn2[C@@H]1O[C@H](COS(=O)(=O)O)[C@@H](O)[C@H]1O` [AMS, adenosine 5′-monosulfate]: the “inhibition … (AMP analogues)” value is listed as “not inhibited”. Further, the “inhibition … (AMP analogues)” value (listed as adenosine 5′-monosulfate) is reported as “did not block”.
Consider `Nc1ncnc2c1ncn2[C@@H]1O[C@H](C(=O)O)[C@@H](O)[C@H]1O` [ACA, adenosine 5′-carboxylate], for which the “inhibition … (AMP analogues)” value is on record as “not inhibited”. Besides, the “inhibition … (AMP analogues)” value (listed as adenosine 5′-carboxylate) is listed as “did not block”.
As to `C=C[C@H]1C[N@@]2CC[C@H]1C[C@H]2[C@H](O)c1ccnc2ccc(OC)cc12` [QUI, quinine hydrochloride, reference compound], the “activation of transducin by the tastant” value (tastant itself, no inhibitor) is listed as “activated transducin”.
Regarding “nicotine hemisulfate [reference compound]”, the “activation of transducin by the tastant” value is on record as “activated transducin”.
For the molecule `Nc1ncnc2c1ncn2[C@@H]1O[C@H](CO)[C@@H](O)[C@H]1OP(=O)(O)O` [adenosine 2′-monophosphate], the “inhibition of in vitro activation of transducin (G-protein) by taste membranes plus bitter compounds, summary statement” value (from here on “inhibition … summary statement”) was “successfully inhibit”. In addition, where the note is “concentration not given, not shown in FIG. 2”, the “inhibition of DEN/taste receptor activation of transducin” value is “potently inhibited”.
Take `Nc1ccn([C@@H]2O[C@H](COP(=O)(O)O)[C@@H](O)[C@H]2O)c(=O)n1` [CMP, 5′-cytidylic acid]: the “inhibition … (AMP analogues)” value is recorded as “inhibited” and the “inhibition … summary statement” value is listed as “successfully inhibit”. Besides, the “inhibition … (AMP analogues)” value (listed as 5′-Cytidylic acid) is on record as “partially inhibited”.
Regarding `CN1[C@@H]2CC[C@H]1C[C@@H](OC(=O)C(CO)c1ccccc1)C2` (stereo partly shown) [atropine, atropine hydrochloride, reference compound], for the setting “tastant itself, no inhibitor”, the “activation of transducin by the tastant” value is on record as “activated transducin”.
With `Cn1c(=O)c2c(ncn2C)n(C)c1=O` [CAF, caffeine, reference compound], the “inhibition … (AMP analogues)” value is given as “not inhibited”. Under “listed as caffeine”, the “inhibition … (AMP analogues)” value is recorded as “did not block”.
Take `O=C(O)/C=C/c1ccc(O)c(O)c1` [caffeic acid, reference compound]: the “activation of transducin by the tastant” value (tastant itself, no inhibitor) is “activated transducin”.
Take `Cl.Nc1ncnc2c1ncn2[C@@H]1O[C@H](CO)[C@@H](O)[C@H]1O` [ADO, adenosine hydrochloride]: the “inhibition … (AMP analogues)” value is “not inhibited” (hydrochloride) and “did not block” (listed as adenosine, hydrochloride).
`C1CCN2C[C@@H]3C[C@@H](CN4CCCC[C@@H]34)[C@H]2C1` [sparteine, reference compound]: the “activation of transducin by the tastant” value (tastant itself, no inhibitor) was “activated transducin”.
Regarding `Nc1ncnc2c1ncn2[C@@H]1O[C@H](CO)[C@@H](OP(=O)(O)O)[C@H]1O` [3′AMP, adenosine 3′ monophosphate], the “inhibition … (AMP analogues)” value is on record as “potently inhibited” and the “inhibition … summary statement” value is recorded as “successfully inhibit”.
With `Cl.Nc1ncnc2nc[nH]c12` [ADE, adenine hydrochloride], the “inhibition … (AMP analogues)” value runs as follows: (hydrochloride) “not inhibited”; (listed as adenine, hydrochloride) “did not block”.
For the molecule `Nc1ncnc2c1ncn2[C@@H]1O[C@H](COP(=O)(O)OP(=O)(O)O)[C@@H](O)[C@H]1O` [ADP, adenosine 5′ diphosphate], the “inhibition … (AMP analogues)” value is “potently inhibited” and the “inhibition … summary statement” value was “successfully inhibit”.
On to `Cc1cn([C@H]2C[C@H](O)[C@@H](COP(=O)(O)O)O2)c(=O)[nH]c1=O` [TMP, thymidine 5′-monophosphate], for which the “inhibition … (AMP analogues)” value is listed as “inhibited” and the “inhibition … summary statement” value is recorded as “successfully inhibit”. Moreover, the “inhibition … (AMP analogues)” value (listed as thymidine 5′-monophosphate) is given as “potently inhibited”.
Take `CC[N+](CC)(CC(=O)Nc1c(C)cccc1C)Cc1ccccc1` [DEN, denatonium benzoate, reference compound]: the “activation of transducin by the tastant” value (tastant itself, no inhibitor) is given as “activated transducin”.
With `Nc1ncnc2c1ncn2[C@@H]1O[C@H](COP(=O)(O)OP(=O)(O)OP(=O)(O)O)[C@@H](O)[C@H]1O` [ATP, adenosine 5′ triphosphate], the “inhibition … (AMP analogues)” value is on record as “potently inhibited” and the “inhibition … summary statement” value is recorded as “successfully inhibit”.
As to `Nc1ncnc2c1ncn2[C@@H]1O[C@H](COC(=O)CCC(=O)O)[C@@H](O)[C@H]1O` [ASU, adenosine 5′-succinate], the “inhibition … (AMP analogues)” value is reported as “inhibited” and the “inhibition … summary statement” value is recorded as “successfully inhibit”. The “inhibition … (AMP analogues)” value (listed as adenosinc 5′-succinate) is listed as “potently inhibited”.
As for `CCN(CC)CCCC(C)Nc1c2ccc(Cl)cc2nc2ccc(OC)cc12` (stereo not shown) [quinacrine, reference compound], the “activation of transducin by the tastant” value (tastant itself, no inhibitor) was “activated transducin”.
